Reference: patent US11357779B2 (G1 Therapeutics, Inc., priority 2018, dated 2022)
Read-outs that look alike come from different tables or passages of the source.

Experiment: Noncompartmental pharmacokinetic parameters (Cmax, Tmax, AUC, Racc) in QD and BID cohorts of Form B
Assay type: in vivo, human
Details: human, plasma, oral
Protocol: Analysis of plasma concentration versus time data for calculation of standard pharmacokinetic (PK) parameters following oral administration was conducted using Phoenix WinNonlin version 6.3 using actual blood sampling times.
The following pharmacokinetic parameters were calculated from the concentration versus time data obtained in Example 1 for each of the above QD (200 mg, 300 mg, 400 mg, 500 mg, or 650 mg dosed) and BID (100 mg, 150 mg, or 200 mg doses) Form B of Compound II dosage cohorts: • Cmax—the observed peak plasma concentration determined from the plasma concentration versus time data obtained on Day 1 and Day 29, as applicable; • Tmax—the time to reach the observed peak plasma concentration from the plasma concentration versus time data obtained on Day 1 and Day 29, as applicable; • AUC—area under the plasma concentration versus time curve during a dosing interval on Day 1 and Day 29, as applicable; and • Racc—accumulation ratio calculated as AUCDay 29/AUCDay 1.

CC(C)N1CCN(c2ccc(Nc3ncc4cc5n(c4n3)C3(CCCCC3)CNC5=O)nc2)CC1 [Compound I, 2′-((5-(4-isopropylpiperazin-1-yl)pyridin-2-yl)amino)-7′,8′-dihydro-6′H-spiro[cyclohexane-1,9′-pyrazino[1′,2′:1,5]pyrrolo[2,3-d]pyrimidin]-6′-one]
Cmax (300 mg, Cohort 2, 300 mg QD of Form B, Day 1, upon exclusion of data for patient that vomited immediately after dosing, read-out: Cmax, Mean): 55.2 ng/mL
AUC(0-t) (300 mg, Cohort 2, 300 mg QD of Form B, Day 1, read-out: AUClast, Mean): 413 ng·h/mL
AUC(0-t) (300 mg, Cohort 2, 300 mg QD of Form B, Day 1, read-out: AUClast, Median): 554 ng·h/mL
Cmax (300 mg, Cohort 2, 300 mg QD of Form B, Day 1, read-out: Cmax, Mean): 40.2 ng/mL
Cmax (300 mg, Cohort 2, 300 mg QD of Form B, Day 1, read-out: Cmax, Median): 44.3 ng/mL
Tmax (300 mg, Cohort 2, 300 mg QD of Form B, Day 1, read-out: Tmax, Mean): 4.67 h
Tmax (300 mg, Cohort 2, 300 mg QD of Form B, Day 1, read-out: Tmax, Median): 4 h
AUC(0-t) (300 mg, Compound I, 300 mg QD of Form B, Cohort 2, Day 29, read-out: AUClast (Mean)): 592 ng·h/mL
AUC(0-t) (300 mg, Compound I, 300 mg QD of Form B, Cohort 2, Day 29, read-out: AUClast (Median)): 604 ng·h/mL
Cmax (300 mg, Compound I, 300 mg QD of Form B, Cohort 2, Day 29, read-out: Cmax (Mean)): 47 ng/mL
Cmax (300 mg, Compound I, 300 mg QD of Form B, Cohort 2, Day 29, read-out: Cmax (Median)): 40.5 ng/mL
Tmax (300 mg, Compound I, 300 mg QD of Form B, Cohort 2, Day 29, read-out: Tmax (Mean)): 6 h
Tmax (300 mg, Compound I, 300 mg QD of Form B, Cohort 2, Day 29, read-out: Tmax (Median)): 4 h
AUC(0-t) (400 mg, Cohort 3, 400 mg QD of Form B, Day 1, read-out: AUClast, Mean): 202 ng·h/mL
AUC(0-t) (400 mg, Cohort 3, 400 mg QD of Form B, Day 1, read-out: AUClast, Median): 183 ng·h/mL
Cmax (400 mg, Cohort 3, 400 mg QD of Form B, Day 1, read-out: Cmax, Mean): 20.1 ng/mL
Cmax (400 mg, Cohort 3, 400 mg QD of Form B, Day 1, read-out: Cmax, Median): 21.6 ng/mL
Tmax (400 mg, Cohort 3, 400 mg QD of Form B, Day 1, read-out: Tmax, Mean): 6 h
Tmax (400 mg, Cohort 3, 400 mg QD of Form B, Day 1, read-out: Tmax, Median): 6 h
AUC(0-t) (400 mg, Compound I, 400 mg QD of Form B, Cohort 3, Day 29, read-out: AUClast (Mean)): 278 ng·h/mL
AUC(0-t) (400 mg, Compound I, 400 mg QD of Form B, Cohort 3, Day 29, read-out: AUClast (Median)): 348 ng·h/mL
Cmax (400 mg, Compound I, 400 mg QD of Form B, Cohort 3, Day 29, read-out: Cmax (Mean)): 19 ng/mL
Cmax (400 mg, Compound I, 400 mg QD of Form B, Cohort 3, Day 29, read-out: Cmax (Median)): 23.5 ng/mL
Tmax (400 mg, Compound I, 400 mg QD of Form B, Cohort 3, Day 29, read-out: Tmax (Mean)): 5.33 h
Tmax (400 mg, Compound I, 400 mg QD of Form B, Cohort 3, Day 29, read-out: Tmax (Median)): 6 h
AUC(0-t) (500 mg, Cohort 4, 500 mg QD of Form B, Day 1, read-out: AUClast, Mean): 577 ng·h/mL
AUC(0-t) (500 mg, Cohort 4, 500 mg QD of Form B, Day 1, read-out: AUClast, Median): 611 ng·h/mL
Cmax (500 mg, Cohort 4, 500 mg QD of Form B, Day 1, read-out: Cmax, Mean): 48.9 ng/mL
Cmax (500 mg, Cohort 4, 500 mg QD of Form B, Day 1, read-out: Cmax, Median): 49.6 ng/mL
Tmax (500 mg, Cohort 4, 500 mg QD of Form B, Day 1, read-out: Tmax, Mean): 5.75 h
Tmax (500 mg, Cohort 4, 500 mg QD of Form B, Day 1, read-out: Tmax, Median): 6 h
AUC(0-t) (500 mg, Compound I, 500 mg QD of Form B, Cohort 4, Day 29, read-out: AUClast (Mean)): 607 ng·h/mL
AUC(0-t) (500 mg, Compound I, 500 mg QD of Form B, Cohort 4, Day 29, read-out: AUClast (Median)): 591 ng·h/mL
Cmax (500 mg, Compound I, 500 mg QD of Form B, Cohort 4, Day 29, read-out: Cmax (Mean)): 43.2 ng/mL
Cmax (500 mg, Compound I, 500 mg QD of Form B, Cohort 4, Day 29, read-out: Cmax (Median)): 45 ng/mL
Tmax (500 mg, Compound I, 500 mg QD of Form B, Cohort 4, Day 29, read-out: Tmax (Mean)): 5.33 h
Tmax (500 mg, Compound I, 500 mg QD of Form B, Cohort 4, Day 29, read-out: Tmax (Median)): 6 h
AUC(0-t) (650 mg, Cohort 5, 650 mg QD of Form B, Day 1, read-out: AUClast, Mean): 799 ng·h/mL
AUC(0-t) (650 mg, Cohort 5, 650 mg QD of Form B, Day 1, read-out: AUClast, Median): 805 ng·h/mL
Cmax (650 mg, Cohort 5, 650 mg QD of Form B, Day 1, read-out: Cmax, Mean): 62.5 ng/mL
Cmax (650 mg, Cohort 5, 650 mg QD of Form B, Day 1, read-out: Cmax, Median): 67 ng/mL
Tmax (650 mg, Cohort 5, 650 mg QD of Form B, Day 1, read-out: Tmax, Mean): 7.67 h
Tmax (650 mg, Cohort 5, 650 mg QD of Form B, Day 1, read-out: Tmax, Median): 8 h
AUC(0-t) (650 mg, Compound I, 650 mg QD of Form B, Cohort 5, Day 29, read-out: AUClast (Mean)): 607 ng·h/mL
AUC(0-t) (650 mg, Compound I, 650 mg QD of Form B, Cohort 5, Day 29, read-out: AUClast (Median)): 591 ng·h/mL
Cmax (650 mg, Compound I, 650 mg QD of Form B, Cohort 5, Day 29, read-out: Cmax (Mean)): 43.2 ng/mL
Cmax (650 mg, Compound I, 650 mg QD of Form B, Cohort 5, Day 29, read-out: Cmax (Median)): 45 ng/mL
Tmax (650 mg, Compound I, 650 mg QD of Form B, Cohort 5, Day 29, read-out: Tmax (Mean)): 5.33 h
Tmax (650 mg, Compound I, 650 mg QD of Form B, Cohort 5, Day 29, read-out: Tmax (Median)): 6 h
